Experimental data published in US20100009395A1, “LUMINESCENCE ASSAY UTILIZING A GENETICALLY MODIFIED CELL LINE” (priority 2006, published 2010).
“Also recorded” adds a separate entry of the source.

How the values were obtained:
Assay type in all cases: cell-based
[1] = tested on: native I-kappa B and I-kappa B-luciferase (IkB-Luc); assay: Western blot of total cell lysates from TNF-alpha-treated HCT-116 cells; details: incubation with TNF-alpha
Method: In this experiment the degradation of I-kappa B was investigated. The I-kappa B was stably expressed as a fusion protein with the firefly luciferase in HCT-116 colon cancer cells. Presence of I-kappa B can then be monitored by luminescence activity. It was determined that the fusion protein is subject to similar levels of degradation in response to a stimulus such as tumor necrosis factor-alpha (TNF-alpha), a known inducer of phosphorylation and degradation of I-kappa B, as would be the case with the native of I-kappa B. Western blot analyses of total cell lysates from TNF-alpha-treated cells were subjected to western blot analyses. Both, native I-kappa B and I-kappa B-luciferase (IkB-Luc) levels were decreased within 20 minutes of incubation with TNF-alpha.

[2] = tested on: I-kappa B-luciferase (IkB-Luc) fusion protein; assay: IkB-Luc degradation luciferase (luminescence imaging) assay in stably transfected HCT-116 cells; details: human urine sample two hours after ingestion of 8 g curcumin
Method: This construct has been transfected into HeLa and HCT-116 cells.
The substrate for luciferase, D-luciferin was also added to the cells at the same time, and the cells were incubated in extremely light-tight, low-background imaging chamber, at 37° C. Photon luminescence emitted from the cells is detected with a back-thinned CCD camera, designed for high-efficiency photon detection, particularly in the important red region of the spectrum.
The imaging assay cells were plated in a 24 well dish and allowed to grow for 24 hours; they were then treated with 10 ng/ml TNF-alpha, the substrate for luciferase, D-luciferin was also added at the same time, the cells were then incubated in a light-tight, low background imaging chamber, at 37° C.
Photon luminescence emitted from the cells was detected with a back-thinned CCD camera, designed for high-efficiency photon detection. The CCD is cooled and the electronic readout is optimized so that the data gathered extremely low noise.
HCT-116 cells stably expressing I-kB-Luc were incubated for 2 hours with increasing concentrations (0-1000 μl) control or post-curcumin ingested urine. Subsequently, some of the cells were treated with TNF-alpha. The level of I-kB degradation was determined by the luciferase assay. […] Similar experiments were conducted with black raspberry extracts.

[3] = tested on: COX-2 gene expression; assay: COX-2 expression in HCT-116 cells after induction with TNF-alpha, EGF or IL-1; details: 1 hour pre-incubation, then TNF-alpha, EGF or IL-1 for 1 hour
Method: Endogenous levels of COX-2 were determined following addition of the three botanical extracts. After incubating the HCT-116 cells with the different fractions for 1 hour, the cells were treated with TNF-alpha, EGF or IL-1 […] (all known inducers of COX-2 expression) for an additional 1 hour to induce high levels of COX-2 expression.

| Compound | time to decrease of native I-kappa B and IkB-Luc levels [1] [min] | protection of IkB-Luc from TNF-alpha-mediated degradation [2] | protection of IkB-Luc from TNF-alpha-mediated degradation ([2]; listed as cucurmin) | COX-2 gene expression [3] |
| --- | --- | --- | --- | --- |
| TNF-alpha | ≤ 20 |  |  |  |
| COc1cc(/C=C/C(=O)CC(=O)/C=C/c2ccc(O)c(OC)c2)ccc1O [curcumin] |  | significant increase in the protection of the IkB-Luc from TNF-alpha-mediated degradation; also recorded: reduced the TNF degradation of I kappa B-Luc | significantly inhibited the IkB-Luc degradation | inhibitor of COX-2 gene expression |
